Test results as given in ChEMBL document CHEMBL1201862, “PubChem BioAssay data set” (2004).
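Method: 48-hour compound exposure of cells in 96-well plates, five concentrations, linear interpolation of endpoints. At the GI50, growth is halved.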 The source made the active and inactive calls. No stated cut-off is given here; in the data, active = GI50 up to about 1.1 µM and inactive = higher.

Tests used:
Test in all cases: growth of human tumour cells (NCI), 48 h
[1] = system: 786-0
[2] = system: ACHN
[3] = system: BT-549
[4] = system: DLD-1
[5] = system: DMS-114
[6] = system: DMS-273
[7] = system: DU-145
[8] = system: HCC 2998
[9] = system: HCT-15
[10] = system: HL-60
[11] = system: HOP-18
[12] = system: HOP-92
[13] = system: Hs-578T
[14] = system: KM-20L2
[15] = system: M14
[16] = system: M19-MEL
[17] = system: MDA-MB-231
[18] = system: MDA-MB-435
[19] = system: MDA-N
[20] = system: NCI-H460
[21] = system: NCI-H522
[22] = system: NCI/ADR-RES
[23] = system: OVCAR-4
[24] = system: PC-3
[25] = system: RXF 393
[26] = system: SNB-78
[27] = system: SR
[28] = system: T47D
[29] = system: TK-10
[30] = system: UO-31
[31] = system: XF498
[32] = system: A498
[33] = system: A549
[34] = system: CCRF-CEM
[35] = system: COLO 205
[36] = system: EKVX
[37] = system: HCT-116
[38] = system: HOP-62
[39] = system: HT-29
[40] = system: IGROV-1
[41] = system: K562
[42] = system: KM12
[43] = system: LOX IMVI
[44] = system: LXFL 529
[45] = system: MOLT-4
[46] = system: Malme-3M
[47] = system: NCI-H226
[48] = system: NCI-H23
[49] = system: OVCAR-3
[50] = system: OVCAR-5
[51] = system: OVCAR-8
[52] = system: RPMI-8226
[53] = system: SF-295
[54] = system: SF-539
[55] = system: SK-MEL-28
[56] = system: SK-MEL-2
[57] = system: SK-MEL-5
[58] = system: SK-OV-3
[59] = system: SN12C
[60] = system: SNB-19
[61] = system: SNB-75
[62] = system: SW-620
[63] = system: U-251
[64] = system: UACC-257
[65] = system: UACC-62
[66] = system: CAKI-1

Measured: GI50

CCCCCC(O)C1C(=O)OC(C)C(O)/C=C/C=C/C=C/C=C/C=C(\C)C(O)C(O)C(O)CC(O)CC(O)CC(O)CC(O)CC1O (centres undefined)
2.42 µM: [9]
inactive: [1] > 100 µM | [2] > 100 µM | [3] > 100 µM | [4] 1.6 µM | [5] 1.53 µM | [6] 1.34 µM | [7] > 100 µM | [8] 1.76 µM | [10] > 100 µM | [11] 2.48 µM | [12] 1.71 µM | [13] > 100 µM | [14] 2.28 µM | [15] > 100 µM | [16] 1.24 µM | [17] > 100 µM | [18] > 100 µM | [19] > 100 µM | [20] 1.56 µM | [21] 1.73 µM | [22] 1.51 µM | [23] 1.82 µM | [24] > 100 µM | [25] 1.41 µM | [26] 1.88 µM | [27] > 100 µM | [28] > 100 µM | [29] > 100 µM | [30] 1.79 µM | [31] 1.49 µM

CC(=O)O[C@]1(C)OC(=O)[C@@H](C)N1[N+](=O)[O-]
> 100 µM: [9]
inactive: [1] > 100 µM | [32] > 100 µM | [33] > 100 µM | [2] 60 µM | [34] 72.8 µM | [35] > 100 µM | [4] > 100 µM | [5] > 100 µM | [6] 96.6 µM | [36] > 100 µM | [8] > 100 µM | [37] > 100 µM | [10] 32.1 µM | [11] > 100 µM | [38] > 100 µM | [39] > 100 µM | [40] > 100 µM | [41] > 100 µM | [14] > 100 µM | [42] > 100 µM | [43] 72.3 µM | [44] > 100 µM | [15] > 100 µM | [16] > 100 µM | [45] 45.9 µM | [46] > 100 µM | [47] > 100 µM | [48] > 100 µM | [20] 39.2 µM | [21] > 100 µM | [49] > 100 µM | [23] > 100 µM | [50] > 100 µM | [51] > 100 µM | [52] > 100 µM | [25] > 100 µM | [53] > 100 µM | [54] > 100 µM | [55] > 100 µM | [56] > 100 µM | [57] > 100 µM | [58] > 100 µM | [59] > 100 µM | [60] > 100 µM | [61] 57.1 µM | [26] > 100 µM | [27] 34.9 µM | [62] > 100 µM | [29] > 100 µM | [63] > 100 µM | [64] > 100 µM | [65] > 100 µM | [30] > 100 µM
active: [31] < 0.01 µM

NCCCCCCNCc1cccc2ccccc12
74.6 µM: [9]
inactive: [1] > 100 µM | [33] > 100 µM | [2] > 100 µM | [66] > 100 µM | [34] > 10 µM | [35] 29.9 µM | [4] > 100 µM | [5] > 100 µM | [36] > 100 µM | [37] 95.1 µM | [10] 54.2 µM | [11] 24.2 µM | [38] > 100 µM | [39] 38.3 µM | [40] > 100 µM | [41] 19.8 µM | [14] 58.3 µM | [42] 99.8 µM | [43] 41 µM | [44] > 100 µM | [15] 18.4 µM | [16] > 100 µM | [45] 40.8 µM | [46] 19.1 µM | [47] > 100 µM | [48] > 100 µM | [20] > 100 µM | [21] 83.6 µM | [49] > 100 µM | [23] > 100 µM | [50] > 100 µM | [51] > 100 µM | [52] > 100 µM | [25] 57 µM | [53] > 100 µM | [54] 40.6 µM | [55] 65.2 µM | [56] 41.3 µM | [57] 90.8 µM | [58] > 100 µM | [59] > 100 µM | [60] > 100 µM | [61] > 100 µM | [26] > 100 µM | [27] 45.3 µM | [62] 85.5 µM | [29] > 100 µM | [63] > 100 µM | [64] 46.3 µM | [65] > 100 µM | [30] 53.5 µM | [31] 44.2 µM
